Test results published in patent US5362634A, “Process for producing A83543 compounds” (DowElanco, priority 1991, dated 1994).
Read-outs that look alike come from different tables or passages of the source.

What was measured:
Format in all cases: in vivo
adult stable fly = experiment: Insecticidal assay in blood of sheep challenged with Haemonchus contortus, adult stable fly; parameters: mortality: dose or concentration left out as unconfirmed; conditions: Stomoxys calcitrans, read-out: Percent Insecticide Mortality; for mortality at 1 mg/kg: iv, 1 × 1 mg/kg IV
Protocol: Blood is drawn from the guinea pigs at 30 minutes except as noted, and the samples of blood are centrifuged. Dental wicks are saturated with the blood serum, and then exposed in Petri dishes to adult stable flies; blow fly larvae are exposed in test tubes. After 24 and 48 hours, the insects are examined, and the number of dead are counted. The results of the tests are recorded as the percent of the insects which are killed.
Tests are carried out in sheep using the test method described supra in the Guinea Pig Test description. […]
^b Amount (mg/kg) times number of doses administered
^c Times postadministration at which blood is drawn

[1] = system: SM (twospotted spider mite); experiment: Greenhouse test against SM; conditions: Tetranychus urticae
Protocol: Each test compound was formulated by dissolving the compound in an acetone/alcohol (1:1) mixture containing 23 g of "Toximul R" (sulfonate/nonionic emulsifier blend) and 13 g of "Toximul S" (sulfonate/nonionic emulsifier blend) per liter. These mixtures were then diluted with water to give the indicated concentrations.
Two-spotted spider mites (Tetranychus urticae Koch) and cotton or melon aphids (Aphis gossypii Glover) were introduced on squash cotyledons and allowed to establish on both leaf surfaces. Other plants in the same treatment pot were left uninfested. The leaves were then sprayed with 5 mL of test solution using a DeVilbiss atomizing sprayer at 10 psi. Both surfaces of the leaves were covered until runoff and then allowed to dry for one hour. Two uninfested leaves were then excised and placed into a Petri dish containing Southern armyworm (Spodoptera eridania Cramer).
After standard exposure periods, percent mortality was evaluated.

sheep = experiment: Toxicity to the host animal, sheep systemic test; parameters: key: N: none
Protocol: Tests are carried out in sheep using the test method described supra in the Guinea Pig Test description. Test compound is administered by intraperitoneal or intravenous injection or intraruminally; blood samples are drawn at 24 hours in these tests.

[2] = 0 h, Day 0, A, 24-hour exposure
[3] = 0 h, Day 0, A, 48-hour exposure
[4] = 24 h, Day 1, A, 24-hour exposure
[5] = 24 h, Day 1, A, 48-hour exposure
[6] = 48 h, Day 2, A, 24-hour exposure
[7] = 72 h, Day 3, A, 24-hour exposure
[8] = 72 h, Day 3, A, 48-hour exposure
[9] = 120 h, Day 5, A, 48-hour exposure

Compound `CC[C@H]1CCC[C@H](O[C@H]2CC[C@H](N(C)C)[C@@H](C)O2)[C@@H](C)C(=O)C2=C[C@@H]3[C@@H](C=C[C@@H]4C[C@@H](O[C@@H]5O[C@@H](C)[C@H](OC)[C@@H](OC)[C@H]5OC)C[C@@H]34)[C@@H]2CC(=O)O1` [A83543A] has a mortality (adult stable fly; [2]) of 0%, a mortality (adult stable fly; [3]) of 0% and a mortality (adult stable fly; 5 h, A, 24-hour exposure) of 10%. For the same compound, the mortality (adult stable fly; 24 h, 35 min, A, 24-hour exposure) was 10%, the mortality (adult stable fly; 24 h, 5 hr, A, 24-hour exposure) was 10% and the mortality (adult stable fly; 24 h, Day 0, A, 24-hour exposure) was 0%. For the same compound, the mortality (adult stable fly; [4]) was 10%, the mortality at 50 mg/kg (adult stable fly; [4]) was 0% and the mortality (adult stable fly; [5]) was 90%. The mortality at 50 mg/kg (adult stable fly; [5]) was 60%, the mortality at 2 mg/kg (adult stable fly; 48 h, 25 × 2 mg/kg IR, Day 2, A, 24-hour exposure) was 20% and the mortality (adult stable fly; [6]) was 20%. For the same compound, the mortality (adult stable fly; [7]) was 0%, the mortality (adult stable fly; [8]) was 70% and the mortality (adult stable fly; [9]) was 30%. For the same compound, the mortality at 50 mg/kg (adult stable fly; ip, 0 h, Day 0, A, 48-hour exposure) was 20%, the mortality at 50 mg/kg (adult stable fly; ip, 35 min, A, 48-hour exposure) was 0% and the mortality at 50 mg/kg (adult stable fly; ip, 5 h, A, 48-hour exposure) was 10%. The mortality at 50 mg/kg (adult stable fly; ip, 24 h, 35 min, A, 24-hour exposure) was 0%, the mortality at 50 mg/kg (adult stable fly; ip, 24 h, 5 hr, A, 24-hour exposure) was 0% and the mortality at 50 mg/kg (adult stable fly; ip, 24 h, Day 0, A, 24-hour exposure) was 0%. For the same compound, the mortality at 50 mg/kg (adult stable fly; ip, 24 h, Day 1, A, 24-hour exposure) was 0%, the mortality at 50 mg/kg (adult stable fly; ip, 24 h, Day 1, A, 48-hour exposure) was 0% and the mortality at 50 mg/kg (adult stable fly; ip, 24 h, Day 2, A, 24-hour exposure) was 10%. It also gave a mortality at 50 mg/kg (adult stable fly; ip, 24 h, Day 3, A, 24-hour exposure) of 0%, a mortality at 50 mg/kg (adult stable fly; ip, 24 h, Day 4, A, 24-hour exposure) of 10% and a mortality at 50 mg/kg (adult stable fly; ip, 24 h, Day 5, A, 24-hour exposure) of 0%. It also gave a mortality at 50 mg/kg (adult stable fly; ip, 48 h, Day 2, A, 48-hour exposure) of 30%, a mortality at 50 mg/kg (adult stable fly; ip, 72 h, Day 3, A, 48-hour exposure) of 10% and a mortality at 50 mg/kg (adult stable fly; ip, 96 h, Day 4, A, 48-hour exposure) of 20%. For the same compound, the mortality at 50 mg/kg (adult stable fly; ip, 120 h, Day 5, A, 48-hour exposure) was 0%, the mortality at 1 mg/kg (adult stable fly; [2]) was 0% and the mortality at 1 mg/kg (adult stable fly; [3]) was 0%. It also gave a mortality at 1 mg/kg (adult stable fly; 35 min, 35 min, A, 24-hour exposure) of 10%, a mortality at 1 mg/kg (adult stable fly; 35 min, 35 min, A, 48-hour exposure) of 10% and a mortality at 1 mg/kg (adult stable fly; 5 h, 5 hr, A, 24-hour exposure) of 0%. It also gave a mortality at 1 mg/kg (adult stable fly; 5 h, 5 hr, A, 48-hour exposure) of 20%, a mortality at 1 mg/kg (adult stable fly; [4]) of 0% and a mortality at 1 mg/kg (adult stable fly; [5]) of 0%. For the same compound, the mortality at 1 mg/kg (adult stable fly; [6]) was 0%, the mortality at 1 mg/kg (adult stable fly; 48 h, Day 2, A, 48-hour exposure) was 0% and the mortality at 1 mg/kg (adult stable fly; [7]) was 0%. For the same compound, the mortality at 1 mg/kg (adult stable fly; [8]) was 0%, the mortality at 1 mg/kg (adult stable fly; 96 h, Day 4, A, 24-hour exposure) was 0% and the mortality at 1 mg/kg (adult stable fly; 96 h, Day 4, A, 48-hour exposure) was 0%. It also gave a mortality at 1 mg/kg (adult stable fly; 120 h, Day 5, A, 24-hour exposure) of 0%, a mortality at 1 mg/kg (adult stable fly; [9]) of 0% and an inhibition at 6.25 ppm ([1]; bushbean, 6.25 ppm) of 0%. It also gave an inhibition at 12.5 ppm ([1]; bushbean, 12.5 ppm) of 10%, an inhibition at 25 ppm ([1]; bushbean, 25 ppm) of 30% and an inhibition at 50 ppm ([1]; bushbean, 50 ppm) of 80%. The inhibition at 100 ppm ([1]; bushbean, 100 ppm) was 100%, the inhibition at 31.25 ppm ([1]; squash, 31.25 ppm) was 0% and the inhibition at 62.5 ppm ([1]; squash, 62.5 ppm) was 20%. The inhibition at 125 ppm ([1]; squash, 125 ppm) was 40%, the inhibition at 250 ppm ([1]; squash, 250 ppm) was 70% and the Tox (sheep; 1.0 mg/kg IV) was “N”. The Tox (sheep; 10 mg/kg IP) was “N”, the Tox (sheep; 10 mg/kg IR) was “N” and the Tox (sheep; 30 mg/kg IP) was “N”. The Tox (sheep; 30 mg/kg IR) was “N”, the Tox (sheep; 50 mg/kg IP) was “N” and the Tox (sheep; 50 mg/kg IR) was “N”. The Tox (sheep; 2 × 25 mg/kg IR) was “N”.
